This is an account of results in patent publication US12209081B2 (Katholieke Universiteit Leuven, priority 2020, dated 2025).

This assay has as its target mouse TRPM3α2 (mTRPM3) ion channel (Mus musculus (Mouse), UniProt J9SQF3). The assay can be described thus: TRPM3 ion channel driven Ca2+ uptake, Fluo-4 AM assay, mTRPM3alpha2 overexpressing flip-in HEK293 cells stimulated with pregnenolone sulfate. It is filed as cell-based. The procedure, abridged: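 Read-out is Ca2+ influx via Fluo-4 AM fluorescence at 485/535 nm, taken right after seeding ~2000 cells/well onto compound with 50 μM PS. Inhibition computed from RFU between vehicle-stimulated and positive-control-inhibitor wells; cells were mTRPM3α2-overexpressing flip-in HEK293.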

The mark [1] stands for this setting: PS (50 μM) stimulated, cpds. 500-599.
[2] abbreviates: PS (50 μM) stimulated, cpds. 608-666.
Setting [3] is: PS (50 μM) stimulated, cpd 001-199.
Where [4] appears, read: PS (50 μM) stimulated, cpds. 400-499.
Where [5] appears, read: PS (50 μM) stimulated, cpds. 667-751.

One may read the IC50 as the concentration that gives 50% inhibition.

Sequence of mouse TRPM3α2 (mTRPM3) ion channel (J9SQF3 other isoform, or with tags, fused parts or gaps): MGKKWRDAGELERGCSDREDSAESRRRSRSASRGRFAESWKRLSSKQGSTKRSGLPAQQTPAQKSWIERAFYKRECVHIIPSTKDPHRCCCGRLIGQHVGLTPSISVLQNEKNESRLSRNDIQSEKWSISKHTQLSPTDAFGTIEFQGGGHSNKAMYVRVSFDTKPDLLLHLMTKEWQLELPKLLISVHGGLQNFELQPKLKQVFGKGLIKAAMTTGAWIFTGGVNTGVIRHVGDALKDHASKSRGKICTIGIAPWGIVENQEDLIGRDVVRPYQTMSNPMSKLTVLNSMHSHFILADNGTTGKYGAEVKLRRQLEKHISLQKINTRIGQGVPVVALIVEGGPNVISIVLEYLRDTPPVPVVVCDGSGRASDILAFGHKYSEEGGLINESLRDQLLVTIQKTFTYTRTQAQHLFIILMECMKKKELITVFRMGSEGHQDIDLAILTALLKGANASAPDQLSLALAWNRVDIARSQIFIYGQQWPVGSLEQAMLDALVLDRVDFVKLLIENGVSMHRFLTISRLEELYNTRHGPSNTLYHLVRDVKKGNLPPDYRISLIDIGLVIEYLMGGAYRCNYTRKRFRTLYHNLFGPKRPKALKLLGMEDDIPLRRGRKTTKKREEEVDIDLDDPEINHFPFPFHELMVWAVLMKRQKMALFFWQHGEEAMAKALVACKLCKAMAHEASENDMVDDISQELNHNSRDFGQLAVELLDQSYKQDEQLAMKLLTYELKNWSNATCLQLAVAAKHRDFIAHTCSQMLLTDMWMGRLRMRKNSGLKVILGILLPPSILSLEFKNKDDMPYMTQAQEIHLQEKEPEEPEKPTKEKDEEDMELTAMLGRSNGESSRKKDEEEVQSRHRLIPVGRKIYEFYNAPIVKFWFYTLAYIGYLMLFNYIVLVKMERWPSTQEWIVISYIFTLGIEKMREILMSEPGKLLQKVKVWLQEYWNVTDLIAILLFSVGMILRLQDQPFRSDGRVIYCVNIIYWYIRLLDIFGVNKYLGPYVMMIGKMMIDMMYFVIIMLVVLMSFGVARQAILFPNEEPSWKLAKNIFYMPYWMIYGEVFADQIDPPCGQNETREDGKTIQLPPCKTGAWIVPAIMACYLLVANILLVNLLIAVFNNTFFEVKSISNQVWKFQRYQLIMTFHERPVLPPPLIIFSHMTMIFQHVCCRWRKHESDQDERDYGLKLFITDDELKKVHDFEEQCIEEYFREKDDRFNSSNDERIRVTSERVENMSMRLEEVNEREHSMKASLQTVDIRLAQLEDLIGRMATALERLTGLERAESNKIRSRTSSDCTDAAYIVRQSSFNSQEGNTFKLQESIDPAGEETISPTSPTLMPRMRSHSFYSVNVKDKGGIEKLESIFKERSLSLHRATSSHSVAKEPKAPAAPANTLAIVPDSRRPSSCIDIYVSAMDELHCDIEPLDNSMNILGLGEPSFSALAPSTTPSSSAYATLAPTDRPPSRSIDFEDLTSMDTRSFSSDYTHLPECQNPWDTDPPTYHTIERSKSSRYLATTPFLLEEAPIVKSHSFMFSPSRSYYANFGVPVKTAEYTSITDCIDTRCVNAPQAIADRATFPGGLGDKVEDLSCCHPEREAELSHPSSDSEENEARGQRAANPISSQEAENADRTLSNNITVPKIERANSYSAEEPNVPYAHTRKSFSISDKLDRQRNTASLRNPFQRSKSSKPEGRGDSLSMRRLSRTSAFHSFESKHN

As to `COc1ncccc1COc1ccc2oc(C)c(C(=O)NC3(CO)COC3)c2c1` [compound 528, N-(3-(hydroxymethyl)oxetan-3-yl)-5-((2-methoxypyridin-3-yl)methoxy)-2-methylbenzofuran-3-carboxamide], the IC50 under setting [1] is less than 1 µM.
Under setting [2], `Cc1oc2ccc(OCc3cccnc3)cc2c1C(=O)NC(CO)C(N)=O` (stereo not shown) [compound 662, N-(1-amino-3-hydroxy-1-oxopropan-2-yl)-2-methyl-5-(pyridin-3-ylmethoxy)benzofuran-3-carboxamide] gave an IC50 of less than 1 µM.
On to `Cc1oc2ccc(OCc3cccnc3C(F)(F)F)cc2c1C(=O)NC1CCN(CC(F)(F)F)CC1` [compound 168, 2-methyl-N-(1-(2,2,2-trifluoroethyl)piperidin-4-yl)-5-((2-(trifluoromethyl)pyridin-3-yl)methoxy) -benzofuran-3-carboxamide], for which, under setting [3], the IC50 is less than 1 µM.
`Cc1oc2ccc(OCc3ccnn3C)cc2c1C(=O)NC(C)(C)CO` [compound 482, N-(1-hydroxy-2-methylpropan-2-yl)-2-methyl-5-((1-methyl-1H-pyrazol-5-yl)methoxy)benzofuran-3-carboxamide] yielded an IC50 under setting [4] of less than 1 µM.
Turning to `Cc1oc2ccc(OCc3ccc4nccn4c3)cc2c1C(=O)NC1CCNCC1(F)F` (single isomer, unassigned) [cpd 571-En 1], under setting [1], the IC50 lay in the range of 1 to 20 µM.
`Cc1ncc(COc2ccc3oc(C)c(C(=O)NCC4(F)CCOCC4)c3c2)s1` [compound 393, N-((4-fluorotetrahydro-2H-pyran-4-yl)methyl)-2-methyl-5-((2-methylthiazol-5-yl)methoxy)benzofuran-3-carboxamide] came in with a concentration for half-maximal inhibition (IC50) (PS 50 μM, cpds 300-399) of less than 1 µM.
`Cc1cnc(COc2ccc3oc(C)c(C(=O)NC4(CO)CCOCC4)c3c2)s1` [compound 620, N-(4-(hydroxymethyl)tetrahydro-2H-pyran-4-yl)-2-methyl-5-((5-methylthiazol-2-yl)methoxy)benzofuran-3-carboxamide] came in with a half-maximal inhibitory concentration (IC50) under setting [2] of less than 1 µM.
On to `COc1ncccc1COc1ccc2oc(C)c(C(=O)NC3(CO)CC3)c2c1` [compound 421, N-(1-(hydroxymethyl)cyclopropyl)-5-((2-methoxypyridin-3-yl)methoxy)-2-methylbenzofuran-3-carboxamide], for which the IC50 under setting [4] is less than 1 µM.
In the case of `Cc1oc2ccc(OCc3ccccn3)cc2c1C(=O)NC1(C(N)=O)CCC1` [compound 472, N-(1-carbamoylcyclobutyl)-2-methyl-5-(pyridin-2-ylmethoxy)benzofuran-3-carboxamide], the IC50 under setting [4] is less than 1 µM.
In the case of `Cc1ncsc1COc1ccc2oc(C)c(C(=O)NCC(C)(F)F)c2c1` [compound 500, N-(2,2-difluoropropyl)-2-methyl-5-((4-methylthiazol-5-yl)methoxy)benzofuran-3-carboxamide], the IC50 under setting [1] is less than 1 µM.
Consider `Cc1oc2ccc(OCc3cccnc3C(F)(F)F)cc2c1C(=O)NC1CCN(CCO)C1=O` (single isomer, unassigned) [120-En 1, N-(1-(2-hydroxyethyl)-2-oxopyrrolidin-3-yl)-2-methyl-5-((2 (trifluoromethyl)pyridin-3-yl)methoxy)benzofuran-3-carboxamide], for which, under setting [3], the IC50 is less than 1 µM.
In turn, `Cc1oc2ccc(OCc3cccnc3N(C)C)cc2c1C(=O)N[C@@H](CO)C(N)=O` [compound 297, (S)-N-(1-amino-3-hydroxy-1-oxopropan-2-yl)-5-((2-(dimethylamino)pyridin-3-yl)methoxy)-2-methylbenzofuran-3-carboxamide] displayed an IC50 (PS 50 μM, cpds 200-299) of less than 1 µM.
Compound `Cc1ncsc1COc1ccc2oc(C)c(C(=O)NC(C)(C)C(=O)NCCO)c2c1` [compound 398, N-(1-((2-hydroxyethyl)amino)-2-methyl-1-oxopropan-2-yl)-2-methyl-5-((4-methylthiazol-5-yl)methoxy)benzofuran-3-carboxamide] yielded an IC50 (PS 50 μM, cpds 300-399) of less than 1 µM.
Compound `CNC(=O)CNC(=O)c1c(C)oc2ccc(OCc3scnc3C)cc12` [compound 321, 2-methyl-N-(2-(methylamino)-2-oxoethyl)-5-((4-methylthiazol-5-yl)methoxy)benzofuran-3-carboxamide] showed an IC50 (PS 50 μM, cpds 300-399) of less than 1 µM.
Compound `Cc1ncc(COc2ccc3oc(C)c(C(=O)NC4(CO)CCNC4)c3c2)s1` (single isomer, unassigned) [530-En 1, N-(3-(hydroxymethyl)pyrrolidin-3-yl)-2-methyl-5-((2-methylthiazol-5-yl)methoxy)benzofuran-3-carboxamide] showed an IC50 under setting [1] of 1 to 20 µM.
On to `Cc1oc2ccc(OCc3scnc3C(F)(F)F)cc2c1C(=O)N[C@@H](CO)C(N)=O` [compound 694, (S)-N-(1-Amino-3-hydroxy-1-oxopropan-2-yl)-2-methyl-5-((4-(trifluoromethyl)thiazol-5-yl)methoxy)benzofuran-3-carboxamide], for which the IC50 under setting [5] was less than 1 µM.
Consider `Cc1oc2ccc(OCc3cnnn3C)cc2c1C(=O)NC1(CO)CCOCC1` [compound 605, N-(4-(hydroxymethyl)tetrahydro-2H-pyran-4-yl)-2-methyl-5-((1-methyl-1H-1,2,3-triazol-5-yl)methoxy)benzofuran-3-carboxamide], for which the IC50 under setting [2] is greater than 20 µM.
For `Cc1oc2ccc(OCc3cncs3)cc2c1C(=O)NC1(CO)CCOCC1` [compound 627, N-(4-(hydroxymethyl)tetrahydro-2H-pyran-4-yl)-2-methyl-5-(thiazol-5-ylmethoxy)benzofuran-3-carboxamide], the 50% inhibitory concentration (IC50) under setting [2] was less than 1 µM.
As to `Cc1oc2ccc(OCc3nccn3C)cc2c1C(=O)NC1CNCC1(F)F` (single isomer, unassigned) [cpd 638-En 1], the IC50 under setting [2] was less than 1 µM.
Regarding `Cc1nc(COc2ccc3oc(C)c(C(=O)N[C@@H](CO)C(N)=O)c3c2)c(C)s1` [compound 299, (S)-N-(1-amino-3-hydroxy-1-oxopropan-2-yl)-5-((2,5-dimethylthiazol-4-yl)methoxy)-2-methylbenzofuran-3-carboxamide], where the note is “PS 50 μM, cpds 200-299”, the IC50 is less than 1 µM.
Take `Cc1ncsc1COc1ccc2oc(C)c(C(=O)NCC(F)(F)F)c2c1` [compound 666, 2-methyl-5-((4-methylthiazol-5-yl)methoxy)-N-(2,2,2-trifluoroethyl)benzofuran-3-carboxamide]: the concentration for half-maximal inhibition (IC50) under setting [2] was less than 1 µM.
As for `CNC(=O)C1(NC(=O)c2c(C)oc3ccc(OCc4ccccn4)cc23)CCC1` [compound 320, 2-methyl-N-(1-(methylcarbamoyl)cyclobutyl)-5-(pyridin-2-ylmethoxy)benzofuran-3-carboxamide], where the note is “PS 50 μM, cpds 300-399”, the 50% inhibitory concentration (IC50) was less than 1 µM.
For the compound `Cc1ncsc1COc1ccc2oc(C)c(C(=O)NC3(CCO)COC3)c2c1` [compound 128, N-(3-(2-hydroxyethyl)oxetan-3-yl)-2-methyl-5-((4-methylthiazol-5-yl)methoxy)benzofuran-3-carboxamide], the half-maximal inhibitory concentration (IC50) under setting [3] is less than 1 µM.
As for `Cc1ncsc1COc1ccc2oc(C)c(C(=O)N(C)C3(CO)CCOCC3)c2c1` [compound 634, N-(4-(hydroxymethyl)tetrahydro-2H-pyran-4-yl)-N.2-dimethyl-5-((4-methylthiazol-5-yl)methoxy)benzofuran-3-carboxamide], under setting [2], the IC50 was less than 1 µM.
`COc1ccncc1COc1ccc2oc(C)c(C(=O)NC3CCOC3)c2c1` (stereo not shown) [compound 040, 5-((4-methoxypyridin-3-yl)methoxy)-2-methyl-N-(tetrahydrofuran-3-yl)benzofuran-3-carboxamide] registered an IC50 under setting [3] greater than 20 µM.
For the compound `Cc1csc(COc2ccc3oc(C)c(C(=O)NC4CCNC4=O)c3c2)n1` (stereo not shown) [compound 043, 2-methyl-5-((4-methylthiazol-2-yl)methoxy)-N-(2-oxopyrrolidin-3-yl)benzofuran-3-carboxamide], the IC50 under setting [3] is less than 1 µM.
For the compound `Cc1ccc(COc2ccc3oc(C)c(C(=O)N[C@@H](CO)C(N)=O)c3c2)nc1` [compound 700, (S)-N-(1-Amino-3-hydroxy-1-oxopropan-2-yl)-2-methyl-5-((5-methylpyridin-2-yl)methoxy)benzofuran-3-carboxamide], under setting [5], the concentration for half-maximal inhibition (IC50) was less than 1 µM.
For `COc1cc(COc2ccc3oc(C)c(C(=O)NC4(CO)CCOCC4)c3c2)ccn1` [compound 629, N-(4-(hydroxymethyl)tetrahydro-2H-pyran-4-yl)-5-((2-methoxypyridin-4-yl)methoxy)-2-methylbenzofuran-3-carboxamide], the IC50 under setting [2] is less than 1 µM.
Regarding `Cc1ncc(COc2ccc3oc(C)c(C(=O)NCC4(C#N)CC4)c3c2)s1` [compound 370, N-((1-cyanocyclopropyl)methyl)-2-methyl-5-((2-methylthiazol-5-yl)methoxy)benzofuran-3-carboxamide], the IC50 (PS 50 μM, cpds 300-399) is less than 1 µM.
For `Cc1oc2ccc(OCc3cccnc3C(F)(F)F)cc2c1C(=O)NC1CN(C)CC1(F)F` (single isomer, unassigned) [124-En 1, N-(4,4-difluoro-1-methylpyrrolidin-3-yl)-2-methyl-5-((2-(trifluoromethyl)pyridin-3-yl)methoxy) -benzofuran-3-carboxamide], the IC50 under setting [3] was less than 1 µM.
`Cc1ncsc1COc1cc(F)c2oc(C)c(C(=O)NC3(CO)COC3)c2c1` [compound 367, 7-fluoro-N-(3-(hydroxymethyl)oxetan-3-yl)-2-methyl-5-((4-methylthiazol-5-yl)methoxy)benzofuran-3-carboxamide] gave an IC50 (PS 50 μM, cpds 300-399) of less than 1 µM.
Turning to `Cc1cc(COc2ccc3oc(C)c(C(=O)NC4CCNCC4(F)F)c3c2)no1` (single isomer, unassigned) [cpd 553-En 1], under setting [1], the IC50 is less than 1 µM.
As to `Cc1oc2ccc(OCc3cn(C)nn3)cc2c1C(=O)NC1(CO)CCOCC1` [compound 604, N-(4-(hydroxymethyl)tetrahydro-2H-pyran-4-yl) -2-methyl-5-((1-methyl-1H-1,2,3-triazol-4-yl)methoxy)benzofuran-3-carboxamide], the IC50 under setting [2] is greater than 20 µM.
`Cc1ncc(COc2ccc3oc(C)c(C(=O)N[C@@H]4C(=O)NC[C@H]4O)c3c2)s1` [compound 391, N-((3S,4R)-4-hydroxy-2-oxopyrrolidin-3-yl)-2-methyl-5-((2-methylthiazol-5-yl)methoxy)benzofuran-3-carboxamide]: the IC50 (PS 50 μM, cpds 300-399) is less than 1 µM.
